Source: ChEMBL document CHEMBL1201862, “PubChem BioAssay data set” (2004)
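Results reflect a 48-hour exposure of cells in 96-well plates to compound at five concentrations. At the GI50, growth is halved.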 Activity calls are given as the source filed them. Cut-off read from the data, not from the text of the source: active = GI50 up to about 1.1 µM and inactive = higher.

Tests used:
Experiment in all cases: NCI-60 cell line screen, 48 h
786-0 = tested on: 786-0
A498 = tested on: A498
A549 = tested on: A549
ACHN = tested on: ACHN
CAKI-1 = tested on: CAKI-1
CCRF-CEM = tested on: CCRF-CEM
COLO 205 = tested on: COLO 205
DLD-1 = tested on: DLD-1
DMS-114 = tested on: DMS-114
EKVX = tested on: EKVX
HCC 2998 = tested on: HCC 2998
HCT-116 = tested on: HCT-116
HCT-15 = tested on: HCT-15
HL-60 = tested on: HL-60
HOP-18 = tested on: HOP-18
HOP-62 = tested on: HOP-62
HOP-92 = tested on: HOP-92
HT-29 = tested on: HT-29
IGROV-1 = tested on: IGROV-1
K562 = tested on: K562
KM-20L2 = tested on: KM-20L2
KM12 = tested on: KM12
LOX IMVI = tested on: LOX IMVI
LXFL 529 = tested on: LXFL 529
M14 = tested on: M14
M19-MEL = tested on: M19-MEL
Malme-3M = tested on: Malme-3M
NCI-H226 = tested on: NCI-H226
NCI-H23 = tested on: NCI-H23
NCI-H460 = tested on: NCI-H460
NCI-H522 = tested on: NCI-H522
OVCAR-3 = tested on: OVCAR-3
OVCAR-4 = tested on: OVCAR-4
OVCAR-5 = tested on: OVCAR-5
OVCAR-8 = tested on: OVCAR-8
RXF 393 = tested on: RXF 393
SF-268 = tested on: SF-268
SF-295 = tested on: SF-295
SF-539 = tested on: SF-539
SK-MEL-28 = tested on: SK-MEL-28
SK-MEL-5 = tested on: SK-MEL-5
SK-OV-3 = tested on: SK-OV-3
SN12C = tested on: SN12C
SNB-19 = tested on: SNB-19
SNB-75 = tested on: SNB-75
SNB-78 = tested on: SNB-78
SR = tested on: SR
SW-620 = tested on: SW-620
TK-10 = tested on: TK-10
U-251 = tested on: U-251
UACC-257 = tested on: UACC-257
UACC-62 = tested on: UACC-62
UO-31 = tested on: UO-31
XF498 = tested on: XF498
BT-549 = tested on: BT-549
DMS-273 = tested on: DMS-273
DU-145 = tested on: DU-145
Hs-578T = tested on: Hs-578T
MCF7 = tested on: MCF7
MDA-MB-231 = tested on: MDA-MB-231
MDA-MB-435 = tested on: MDA-MB-435
MDA-N = tested on: MDA-N
MOLT-4 = tested on: MOLT-4
NCI/ADR-RES = tested on: NCI/ADR-RES
PC-3 = tested on: PC-3
RPMI-8226 = tested on: RPMI-8226
SK-MEL-2 = tested on: SK-MEL-2
T47D = tested on: T47D

For `Cc1cccc(NC(=O)C(=O)Cc2nc3ccccc3nc2O)c1C`, the GI50 (786-0) was > 100 µM (inactive), the GI50 (A498) was > 100 µM (inactive) and the GI50 (A549) was > 100 µM (inactive). For the same compound, the GI50 (ACHN) was > 100 µM (inactive), the GI50 (CAKI-1) was > 100 µM (inactive) and the GI50 (CCRF-CEM) was > 100 µM (inactive). The GI50 (COLO 205) was > 100 µM (inactive), the GI50 (DLD-1) was > 100 µM (inactive) and the GI50 (DMS-114) was > 100 µM (inactive). The GI50 (EKVX) was > 100 µM (inactive), the GI50 (HCC 2998) was > 100 µM (inactive) and the GI50 (HCT-116) was > 100 µM (inactive). The GI50 (HCT-15) was over 100 µM, the GI50 (HL-60) was > 100 µM (inactive) and the GI50 (HOP-18) was > 100 µM (inactive). For the same compound, the GI50 (HOP-62) was > 100 µM (inactive), the GI50 (HOP-92) was > 100 µM (inactive) and the GI50 (HT-29) was > 100 µM (inactive). For the same compound, the GI50 (IGROV-1) was > 100 µM (inactive), the GI50 (K562) was > 100 µM (inactive) and the GI50 (KM-20L2) was > 100 µM (inactive). For the same compound, the GI50 (KM12) was > 100 µM (inactive), the GI50 (LOX IMVI) was > 100 µM (inactive) and the GI50 (LXFL 529) was > 100 µM (inactive). The GI50 (M14) was > 100 µM (inactive), the GI50 (M19-MEL) was > 100 µM (inactive) and the GI50 (Malme-3M) was > 100 µM (inactive). The GI50 (NCI-H226) was > 100 µM (inactive), the GI50 (NCI-H23) was > 100 µM (inactive) and the GI50 (NCI-H460) was > 100 µM (inactive). For the same compound, the GI50 (NCI-H522) was > 100 µM (inactive), the GI50 (OVCAR-3) was > 100 µM (inactive) and the GI50 (OVCAR-4) was > 100 µM (inactive). For the same compound, the GI50 (OVCAR-5) was > 100 µM (inactive), the GI50 (OVCAR-8) was > 100 µM (inactive) and the GI50 (RXF 393) was > 100 µM (inactive). For the same compound, the GI50 (SF-268) was > 100 µM (inactive), the GI50 (SF-295) was > 100 µM (inactive) and the GI50 (SF-539) was > 100 µM (inactive). The GI50 (SK-MEL-28) was > 100 µM (inactive), the GI50 (SK-MEL-5) was > 100 µM (inactive) and the GI50 (SK-OV-3) was > 100 µM (inactive). The GI50 (SN12C) was > 100 µM (inactive), the GI50 (SNB-19) was > 100 µM (inactive) and the GI50 (SNB-75) was 84.9 µM (inactive). For the same compound, the GI50 (SNB-78) was > 100 µM (inactive), the GI50 (SR) was > 100 µM (inactive) and the GI50 (SW-620) was > 100 µM (inactive). For the same compound, the GI50 (TK-10) was > 100 µM (inactive), the GI50 (U-251) was > 100 µM (inactive) and the GI50 (UACC-257) was > 100 µM (inactive). The GI50 (UACC-62) was > 100 µM (inactive), the GI50 (UO-31) was > 100 µM (inactive) and the GI50 (XF498) was > 100 µM (inactive).
In the case of `CCCCCCCCCCCCCCCCCCOCC(COP(=O)([O-])OCC[N+](C)(C)C)OC` (stereo unspecified) [EDELFOSINE], the GI50 (786-0) was 22.3 µM (inactive), the GI50 (A498) was 19.8 µM (inactive) and the GI50 (A549) was 21.4 µM (inactive). For the same compound, the GI50 (ACHN) was > 72.8 µM (inactive), the GI50 (BT-549) was 48.8 µM (inactive) and the GI50 (CAKI-1) was 13.1 µM (inactive). For the same compound, the GI50 (CCRF-CEM) was 7.62 µM (inactive), the GI50 (COLO 205) was 2.65 µM (inactive) and the GI50 (DLD-1) was 5.09 µM (inactive). For the same compound, the GI50 (DMS-114) was 13.4 µM (inactive), the GI50 (DMS-273) was 3.03 µM (inactive) and the GI50 (DU-145) was > 100 µM (inactive). For the same compound, the GI50 (EKVX) was 44.3 µM (inactive), the GI50 (HCC 2998) was 2.38 µM (inactive) and the GI50 (HCT-116) was 14.7 µM (inactive). For the same compound, the GI50 (HCT-15) was 3.36 µM, the GI50 (HL-60) was 3.94 µM (inactive) and the GI50 (HOP-18) was 13.3 µM (inactive). The GI50 (HOP-62) was 19.2 µM (inactive), the GI50 (HOP-92) was 8.75 µM (inactive) and the GI50 (HT-29) was 7.28 µM (inactive). For the same compound, the GI50 (Hs-578T) was > 100 µM (inactive), the GI50 (IGROV-1) was 6.67 µM (inactive) and the GI50 (K562) was 44.3 µM (inactive). For the same compound, the GI50 (KM-20L2) was 2.9 µM (inactive), the GI50 (KM12) was 5.09 µM (inactive) and the GI50 (LOX IMVI) was 15.4 µM (inactive). For the same compound, the GI50 (M14) was 32.9 µM (inactive), the GI50 (M19-MEL) was 4.58 µM (inactive) and the GI50 (MCF7) was 27.5 µM (inactive). For the same compound, the GI50 (MDA-MB-231) was 59.7 µM (inactive), the GI50 (MDA-MB-435) was 98.4 µM (inactive) and the GI50 (MDA-N) was > 69.3 µM (inactive). The GI50 (MOLT-4) was 11.5 µM (inactive), the GI50 (Malme-3M) was 29.6 µM (inactive) and the GI50 (NCI-H226) was 26.4 µM (inactive). The GI50 (NCI-H23) was 41.6 µM (inactive), the GI50 (NCI-H460) was 7.05 µM (inactive) and the GI50 (NCI-H522) was 11.4 µM (inactive). For the same compound, the GI50 (NCI/ADR-RES) was 42.3 µM (inactive), the GI50 (OVCAR-3) was 34.3 µM (inactive) and the GI50 (OVCAR-4) was 26.6 µM (inactive). The GI50 (OVCAR-5) was 15.9 µM (inactive), the GI50 (OVCAR-8) was 32.1 µM (inactive) and the GI50 (PC-3) was 7.19 µM (inactive). The GI50 (RPMI-8226) was 20.9 µM (inactive), the GI50 (RXF 393) was 13.9 µM (inactive) and the GI50 (SF-268) was 17.2 µM (inactive). The GI50 (SF-295) was 9.66 µM (inactive), the GI50 (SF-539) was > 58.5 µM (inactive) and the GI50 (SK-MEL-28) was 41.2 µM (inactive). The GI50 (SK-MEL-2) was 31.3 µM (inactive), the GI50 (SK-MEL-5) was 41.8 µM (inactive) and the GI50 (SK-OV-3) was 18.2 µM (inactive). For the same compound, the GI50 (SN12C) was 12.1 µM (inactive), the GI50 (SNB-19) was 20.7 µM (inactive) and the GI50 (SNB-75) was 8.75 µM (inactive). For the same compound, the GI50 (SNB-78) was 19.3 µM (inactive), the GI50 (SR) was 7.87 µM (inactive) and the GI50 (SW-620) was 19.1 µM (inactive). For the same compound, the GI50 (T47D) was > 100 µM (inactive), the GI50 (TK-10) was 19 µM (inactive) and the GI50 (U-251) was 13.6 µM (inactive). For the same compound, the GI50 (UACC-257) was 24 µM (inactive), the GI50 (UACC-62) was 20.5 µM (inactive) and the GI50 (UO-31) was 27.4 µM (inactive). For the same compound, the GI50 (XF498) was 11.2 µM (inactive).
